Laboratory results as given in patent US20250215012A1, “IKZF2 DEGRADERS AND USES THEREOF” (REGENTS OF THE UNIVERSITY OF MICHIGAN, priority 2022, published 2025).
Values belong to the compound of their own block, whether it stands above or below them.

Molecular target: IKZF2 (Homo sapiens (Human), UniProt Q96SW2+Q9UKS7)
Test: IKZF2 HiBiT Assay (Jurkat-IKZF2-HiBiT cell line)
Format: cell-based
Settings: Jurkat-IKZF2-HiBiT cells, 24 hours; for DC50: read-out: HiBit assay degradation analysis DC50; for Dmax: read-out: HiBit assay degradation analysis Dmax
Description: Degradation of IKZF2 protein is determined by IKZF2 HiBiT assay using the Jurkat-IKZF2-HiBiT (Promega) cell line. Briefly, cells are seeded in culture medium. Compounds are serially diluted in culture medium, and certain volume of the diluted compounds is added to the appropriate well of the plate. After the addition of compounds, the cells are incubated. At the end of treatment, Nano-Glo HiBiT Lytic Detection Reagent (Promega) is added to each well, and then the plates are incubated at room temperature for a certain time period. The luminescent signal is measured using a CALRIOstar plate reader (BMG Labtech). The readings are normalized to the DMSO-treated cells and the IC50 is calculated by nonlinear regression (four parameters sigmoid fitted with variable slope, least squares fit, and no constraint) analysis using the GraphPad Prism 8 software.
Degradation of IKZF2 protein was determined by IKZF2 HiBiT assay using the Jurkat-IKZF2-HiBiT (Promega) cell line. […] Compounds were serially diluted in culture medium, and 20 μl of the diluted compounds were added to the appropriate wells of the plate. After the addition of compounds, the cells were incubated at 37° C. in an atmosphere of 5% CO2 for 24 hours. At the end of treatment, 40 ul of Nano-Glo HiBiT Lytic Detection Reagent (Promega) was added to each well, and then the plates were incubated at room temperature for 10-20 minutes. The luminescent signal was measured using a CALRIOstar plate reader (BMG Labtech). The readings were normalized to the DMSO-treated cells and the IC50 was calculated by nonlinear regression (four parameters sigmoid fitted with variable slope, least squares fit, and no constraint) analysis using the GraphPad Prism 8 software.

IKZF2, sequence (Q9UKS7 whole entry): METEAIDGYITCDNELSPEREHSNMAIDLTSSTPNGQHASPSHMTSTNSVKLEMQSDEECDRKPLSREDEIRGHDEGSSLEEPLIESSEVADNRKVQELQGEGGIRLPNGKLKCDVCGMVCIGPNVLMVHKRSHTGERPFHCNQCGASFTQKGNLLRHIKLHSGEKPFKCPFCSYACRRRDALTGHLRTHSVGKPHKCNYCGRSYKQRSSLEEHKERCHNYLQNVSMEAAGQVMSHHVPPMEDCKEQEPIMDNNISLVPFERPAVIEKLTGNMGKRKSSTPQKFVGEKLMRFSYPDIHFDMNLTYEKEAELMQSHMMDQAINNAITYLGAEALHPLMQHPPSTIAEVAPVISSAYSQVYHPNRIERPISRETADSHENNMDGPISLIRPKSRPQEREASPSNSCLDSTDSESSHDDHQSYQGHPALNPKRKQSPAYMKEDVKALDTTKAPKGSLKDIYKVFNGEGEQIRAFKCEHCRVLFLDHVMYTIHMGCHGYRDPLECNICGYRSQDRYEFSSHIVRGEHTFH
IKZF2, sequence (Q96SW2 whole entry): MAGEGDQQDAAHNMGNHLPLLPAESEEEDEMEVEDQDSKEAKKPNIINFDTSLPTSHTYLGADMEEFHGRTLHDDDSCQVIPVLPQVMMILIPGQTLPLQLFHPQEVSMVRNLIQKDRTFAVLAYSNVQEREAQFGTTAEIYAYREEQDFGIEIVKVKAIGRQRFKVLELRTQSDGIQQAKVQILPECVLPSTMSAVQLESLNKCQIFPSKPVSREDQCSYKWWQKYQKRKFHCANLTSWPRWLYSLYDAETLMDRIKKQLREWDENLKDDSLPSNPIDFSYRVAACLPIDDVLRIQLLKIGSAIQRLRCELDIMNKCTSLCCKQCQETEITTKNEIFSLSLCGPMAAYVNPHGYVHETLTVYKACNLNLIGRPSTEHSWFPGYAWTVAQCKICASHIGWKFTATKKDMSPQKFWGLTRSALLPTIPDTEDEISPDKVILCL
IKZF2, sequence (Q16531 whole entry partner): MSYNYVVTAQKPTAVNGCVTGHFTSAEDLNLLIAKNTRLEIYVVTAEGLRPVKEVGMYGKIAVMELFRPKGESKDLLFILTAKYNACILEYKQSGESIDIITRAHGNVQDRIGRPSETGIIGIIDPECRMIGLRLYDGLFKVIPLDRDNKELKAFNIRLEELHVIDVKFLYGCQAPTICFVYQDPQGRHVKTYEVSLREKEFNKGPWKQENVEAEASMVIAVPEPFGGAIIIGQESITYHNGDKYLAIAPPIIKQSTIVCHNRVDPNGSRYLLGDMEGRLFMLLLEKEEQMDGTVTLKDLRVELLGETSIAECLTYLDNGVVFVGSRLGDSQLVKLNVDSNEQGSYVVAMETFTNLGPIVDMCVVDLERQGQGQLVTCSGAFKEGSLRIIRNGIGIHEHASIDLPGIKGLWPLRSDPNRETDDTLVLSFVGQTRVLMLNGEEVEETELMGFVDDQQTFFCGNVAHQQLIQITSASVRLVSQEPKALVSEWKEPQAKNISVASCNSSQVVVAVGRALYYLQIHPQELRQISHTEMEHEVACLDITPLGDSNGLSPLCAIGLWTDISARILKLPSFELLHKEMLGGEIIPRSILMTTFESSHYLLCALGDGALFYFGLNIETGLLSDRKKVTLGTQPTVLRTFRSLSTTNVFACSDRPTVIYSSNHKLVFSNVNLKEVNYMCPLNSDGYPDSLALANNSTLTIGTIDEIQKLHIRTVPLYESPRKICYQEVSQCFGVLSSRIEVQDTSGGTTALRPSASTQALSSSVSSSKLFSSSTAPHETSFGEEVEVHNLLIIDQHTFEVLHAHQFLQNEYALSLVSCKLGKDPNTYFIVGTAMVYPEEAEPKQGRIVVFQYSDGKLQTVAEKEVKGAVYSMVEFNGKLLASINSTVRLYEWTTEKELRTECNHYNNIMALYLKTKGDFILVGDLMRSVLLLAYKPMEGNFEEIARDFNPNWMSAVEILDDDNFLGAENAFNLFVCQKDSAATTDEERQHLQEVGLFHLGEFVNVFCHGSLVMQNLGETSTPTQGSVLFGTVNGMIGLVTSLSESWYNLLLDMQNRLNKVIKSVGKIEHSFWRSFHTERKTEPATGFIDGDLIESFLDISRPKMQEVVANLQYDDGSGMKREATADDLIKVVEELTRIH

Structure (SMILES): O=C1CCC(N2Cc3c(ccc4c3OCC43CCN(C[C@H]4C[C@@H]4c4ccccc4)CC3)C2=O)C(=O)N1 (relative stereo) [Compound A180, 3-(6-oxo-1′-((trans-2-phenylcyclopropyl)methyl)-6,8-dihydro-2H,7H-spiro[furo[2,3-e]isoindole-3,4′-piperidin]-7-yl)piperidine-2,6-dione]
DC50: > 500 nM
Dmax: < 40%

Dmax: < 40%
Structure (SMILES): O=C1CCC(N2Cc3c(ccc4c3OCCC43CCNCC3)C2=O)C(=O)N1 (stereo not drawn) [Compound A2, 3-(7′-oxo-2′,3′,7′,9′-tetrahydro-8′H-spiro[piperidine-4,4′-pyrano[2,3-e]isoindol]-8′-yl)piperidine-2,6-dione]

Structure (SMILES): O=C1CCC(N2Cc3c(ccc4c3OCC43CCN(Cc4ccc(Cl)cc4F)CC3)C2=O)C(=O)N1 (stereo not drawn) [Compound A4, 3-(1′-(4-chloro-2-fluorobenzyl)-6-oxo-6,8-dihydro-2H,7H-spiro[furo[2,3-e]isoindole-3,4′-piperidin]-7-yl)piperidine-2,6-dione]
DC50: > 500 nM
Dmax: 40 to 60%

Structure (SMILES): O=C1CCC(N2Cc3c(ccc4c3OCC43CCN(Cc4ccc(F)cc4Cl)CC3)C2=O)C(=O)N1 (stereo not drawn) [Compound A6, 3-(1′-(2-chloro-4-fluorobenzyl)-6-oxo-6,8-dihydro-2H,7H-spiro[furo[2,3-e]isoindoline-3,4′-piperidin]-7-yl)piperidine-2,6-dione]
DC50: > 500 nM
Dmax: < 40%

Structure (SMILES): O=C1CCC(N2Cc3c(ccc4c3OCC43CCN(CC4CCCCC4)CC3)C2=O)C(=O)N1 (stereo not drawn) [Compound A7, 3-(1′-(cyclohexylmethyl)-6-oxo-6,8-dihydro-2H,7H-spiro[furo[2,3-e]isoindoline-3,4′-piperidin]-7-yl)piperidine-2,6-dione]
DC50: > 500 nM
Dmax: < 40%

Structure (SMILES): O=C1CCC(N2Cc3c(ccc4c3OCCC43CCN(Cc4ccc(C(F)F)cc4)CC3)C2=O)C(=O)N1 (stereo not drawn) [Compound A9, 3-(1-(4-(difluoromethyl)benzyl)-7′-oxo-2′,3′,7′,9′-tetrahydro-8′H-spiro[piperidine-4,4′-pyrano[2,3-e]isoindol]-8′-yl)piperidine-2,6-dione]
DC50: > 500 nM
Dmax: < 40%

Structure (SMILES): O=C1CCC(N2Cc3c(ccc4c3OCCC43CCN(Cc4ccc(Cl)cc4F)CC3)C2=O)C(=O)N1 (stereo not drawn) [Compound A10, 3-(1-(4-chloro-2-fluorobenzyl)-7′-oxo-2′,3′,7′,9′-tetrahydro-8′H-spiro[piperidine-4,4′-pyrano[2,3-e]isoindol]-8′-yl)piperidine-2,6-dione]
DC50: > 500 nM
Dmax: < 40%

Structure (SMILES): O=C1CCC(N2Cc3c(ccc4c3OCCC43CCN(Cc4ccccc4)CC3)C2=O)C(=O)N1 (stereo not drawn) [Compound A13, 3-(1-benzyl-7′-oxo-2′,3′,7′,9′-tetrahydro-8′H-spiro[piperidine-4,4′-pyrano[2,3-e]isoindol]-8′-yl)piperidine-2,6-dione]
DC50: > 500 nM
Dmax: < 40%

Structure (SMILES): O=C1CCC(N2Cc3c(ccc4c3OCCC43CCN(CC4CCCCC4)CC3)C2=O)C(=O)N1 (stereo not drawn) [Compound A14, 3-(1-(cyclohexylmethyl)-7′-oxo-2′,3′,7′,9′-tetrahydro-8′H-spiro[piperidine-4,4′-pyrano[2,3-e]isoindol]-8′-yl)piperidine-2,6-dione]
DC50: > 500 nM
Dmax: < 40%

Structure (SMILES): CCc1ccc(CN2CCC3(CC2)COc2c3ccc3c2CN(C2CCC(=O)NC2=O)C3=O)cc1 (stereo not drawn) [Compound A16, 3-(1′-(4-ethylbenzyl)-6-oxo-6,8-dihydro-2H,7H-spiro[furo[2,3-e]isoindole-3,4′-piperidin]-7-yl)piperidine-2,6-dione]
DC50: > 500 nM
Dmax: < 40%

Structure (SMILES): O=C1CCC(N2Cc3c(ccc4c3OCC43CCN(CC4CCC(F)(F)CC4)CC3)C2=O)C(=O)N1 (stereo not drawn) [Compound A17, 3-(1′-((4,4-difluorocyclohexyl)methyl)-6-oxo-6,8-dihydro-2H,7H-spiro[furo[2,3-e]isoindole-3,4′-piperidin]-7-yl)piperidine-2,6-dione]
DC50: > 500 nM
Dmax: 40 to 60%

Structure (SMILES): O=C1CCC(N2Cc3c(ccc4c3OCC43CCN(CC4CCCC4)CC3)C2=O)C(=O)N1 (stereo not drawn) [Compound A18, 3-(1′-(cyclopentylmethyl)-6-oxo-6,8-dihydro-2H,7H-spiro[furo[2,3-e]isoindole-3,4′-piperidin]-7-yl)piperidine-2,6-dione]
DC50: > 500 nM
Dmax: < 40%

Structure (SMILES): CC1(C)CCC(CN2CCC3(CC2)COc2c3ccc3c2CN(C2CCC(=O)NC2=O)C3=O)CC1 (stereo not drawn) [Compound A19, 3-(1′-((4,4-dimethylcyclohexyl)methyl)-6-oxo-6,8-dihydro-2H,7H-spiro[furo[2,3-e]isoindole-3,4′-piperidin]-7-yl)piperidine-2,6-dione]
DC50: > 500 nM
Dmax: < 40%

Structure (SMILES): O=C1CCC(N2Cc3c(ccc4c3OCC43CCN(CC4CCOCC4)CC3)C2=O)C(=O)N1 (stereo not drawn) [Compound A20, 3-(6-oxo-1′-((tetrahydro-2H-pyran-4-yl)methyl)-6,8-dihydro-2H,7H-spiro[furo[2,3-e]isoindole-3,4′-piperidin]-7-yl)piperidine-2,6-dione]
DC50: > 500 nM
Dmax: < 40%

Structure (SMILES): O=C1CCC(N2Cc3c(ccc4c3OCC43CCN(CC4CCCc5ccccc54)CC3)C2=O)C(=O)N1 (stereo not drawn) [Compound A21, 3-(6-oxo-1′-((1,2,3,4-tetrahydronaphthalen-1-yl)methyl)-6,8-dihydro-2H,7H-spiro[furo[2,3-e]isoindole-3,4′-piperidin]-7-yl)piperidine-2,6-dione]
DC50: > 500 nM
Dmax: 60 to 80%

Structure (SMILES): O=C1CCC(N2Cc3c(ccc4c3OCC43CCN(CC4Cc5ccccc5C4)CC3)C2=O)C(=O)N1 (stereo not drawn) [Compound A22, 3-(1′-((2,3-dihydro-1H-inden-2-yl)methyl)-6-oxo-6,8-dihydro-2H,7H-spiro[furo[2,3-e]isoindole-3,4′-piperidin]-7-yl)piperidine-2,6-dione]
DC50: > 500 nM
Dmax: < 40%

Structure (SMILES): O=C1CCC(N2Cc3c(ccc4c3OCC43CCN(CC4C5CC6CC(C5)CC4C6)CC3)C2=O)C(=O)N1 (stereo not drawn) [Compound A23, 3-(1′-(((1r,3r,5r,7r)-adamantan-2-yl)methyl)-6-oxo-6,8-dihydro-2H,7H-spiro[furo[2,3-e]isoindole-3,4′-piperidin]-7-yl)piperidine-2,6-dione]
DC50: > 500 nM
Dmax: < 40%

Structure (SMILES): O=C1CCC(N2Cc3c(ccc4c3OCC43CCN(CC4CC5CCC4C5)CC3)C2=O)C(=O)N1 (stereo not drawn) [Compound A24, 3-(1′-(bicyclo[2.2.1]heptan-2-ylmethyl)-6-oxo-6,8-dihydro-2H,7H-spiro[furo[2,3-e]isoindole-3,4′-piperidin]-7-yl)piperidine-2,6-dione]
DC50: > 500 nM
Dmax: 40 to 60%

Structure (SMILES): O=C1CCC(N2Cc3c(ccc4c3OCC43CCN(Cc4ccc(-c5ccccc5)cc4)CC3)C2=O)C(=O)N1 (stereo not drawn) [Compound A25, 3-(1′-([1,1′-biphenyl]-4-ylmethyl)-6-oxo-6,8-dihydro-2H,7H-spiro[furo[2,3-e]isoindole-3,4′-piperidin]-7-yl)piperidine-2,6-dione]
DC50: > 500 nM
Dmax: 40 to 60%

Structure (SMILES): COc1ncc(CN2CCC3(CC2)COc2c3ccc3c2CN(C2CCC(=O)NC2=O)C3=O)cn1 (stereo not drawn) [Compound A26, 3-(1′-((2-methoxypyrimidin-5-yl)methyl)-6-oxo-6,8-dihydro-2H,7H-spiro[furo[2,3-e]isoindole-3,4′-piperidin]-7-yl)piperidine-2,6-dione]
DC50: > 500 nM
Dmax: < 40%
